Source: patent publication US20170065566A1, “PHARMACEUTICAL COMBINATIONS COMPRISING ANTIBACTERIAL AGENTS” (WOCKHARDT LIMITED, priority 2014, published 2017)
Counter-ions that a name gives are not always drawn.

System: E. coli 7MP strain producing CMY type, SHV, TEM beta-lactamase enzymes
Assay: Time kill study (viable bacterial count)
Assay type: cell-based
Settings: for Effect on bacterial count of E. coli throughout the duration of the study (in words): alone or in combination; for Bacterial count (Log10 CFU/ml) 0 hour / Bacterial count (Log10 CFU/ml) 2 hour / Bacterial count (Log10 CFU/ml) 4 hour / Bacterial count (Log10 CFU/ml) 6 hour / Bacterial count (Log10 CFU/ml) 8 hour: time kill
Experimental: The synergistic killing effect of the combinations according to invention was studied by performing time kill studies. In a typical time kill study, the freshly grown cultures were diluted to the required cell density (initial starting inoculum) in Cation adjusted Muller Hinton broth medium (BD, USA). The antibacterial agents (either alone or in combination) at the required concentrations were added into the culture-containing medium. The samples were incubated under shaking condition (120 rpm) at 37° C. Enumeration of viable bacterial count was done every 2 hour by diluting in normal saline and plating on to the Tryptic Soya Agar plates (BD, USA). The plates were incubated for 24 hours to arrive at the viable bacterial count. […] In general, the decrease of 1 Log CFU/ml, corresponds to 90% killing of bacteria. Similarly, 2 Log CFU/ml reductions indicates to 99% killing of bacteria and 3 Log CFU/ml reductions is equal to 99.9% killing of bacteria.
The assay without any antibacterial agent was taken as control.

[1] = each active ingredient at 4 mcg/ml

Row | Compound | Effect on bacterial count of E. coli throughout the duration of the study (in words) [1] | Bacterial count (Log10 CFU/ml) 0 hour [1] [Log10 CFU/ml] | Bacterial count (Log10 CFU/ml) 2 hour [1] [Log10 CFU/ml] | Bacterial count (Log10 CFU/ml) 4 hour [1] [Log10 CFU/ml] | Bacterial count (Log10 CFU/ml) 6 hour [1] [Log10 CFU/ml] | Bacterial count (Log10 CFU/ml) 8 hour [1] [Log10 CFU/ml] | Bacterial count (Log10 CFU/ml) 0 hour (2 mcg/ml) [Log10 CFU/ml] | Bacterial count (Log10 CFU/ml) 2 hour (2 mcg/ml) [Log10 CFU/ml] | Bacterial count (Log10 CFU/ml) 4 hour (2 mcg/ml) [Log10 CFU/ml] | Bacterial count (Log10 CFU/ml) 6 hour (2 mcg/ml) [Log10 CFU/ml] | Bacterial count (Log10 CFU/ml) 8 hour (2 mcg/ml) [Log10 CFU/ml]
1 | CO/N=C(\C(=O)N[C@@H]1C(=O)N2C(C(=O)[O-])=C(C[N+]3(C)CCCC3)CS[C@H]12)c1csc(N)n1 [Cefepime, cefepime] | not effective in decreasing the bacterial count | 7.51 | 8.47 | 9.19 | 9.20 | 9.30 | – | – | – | – | –
2 | CO/N=C(\C(=O)N[C@@H]1C(=O)N2C(C(=O)[O-])=C(C[n+]3cccc4c3CCC4)CS[C@H]12)c1csc(N)n1 [Cefpirome, cefpirome] | not effective in decreasing the bacterial count | 7.51 | 8.87 | 9.27 | 9.20 | 9.25 | – | – | – | – | –
3 | C[C@@H](O)[C@H]1C(=O)N2C(C(=O)O)=C(SCCN=CN)C[C@H]12 [Imipenem, imipenem] | – | – | – | – | – | – | 7.51 | 3.95 | 3.60 | 4.81 | 5.90
4 | N#C[C@@H]1CC[C@@H]2CN1C(=O)N2OS(=O)(=O)O [Sodium salt of a compound of Formula (I), sodium salt of sulphuric acid, mono[(1R,2S,5R)-2-cyano-7-oxo-1,6-diazabicyclo[3.2.1]oct-6-yl] ester] | not effective in decreasing the bacterial count | 7.51 | 8.87 | 9.36 | 9.20 | 9.20 | – | – | – | – | –
